Target: Tyrosine-protein kinase BTK (Homo sapiens, UniProt Q06187)
Sequence (Q06187 whole entry): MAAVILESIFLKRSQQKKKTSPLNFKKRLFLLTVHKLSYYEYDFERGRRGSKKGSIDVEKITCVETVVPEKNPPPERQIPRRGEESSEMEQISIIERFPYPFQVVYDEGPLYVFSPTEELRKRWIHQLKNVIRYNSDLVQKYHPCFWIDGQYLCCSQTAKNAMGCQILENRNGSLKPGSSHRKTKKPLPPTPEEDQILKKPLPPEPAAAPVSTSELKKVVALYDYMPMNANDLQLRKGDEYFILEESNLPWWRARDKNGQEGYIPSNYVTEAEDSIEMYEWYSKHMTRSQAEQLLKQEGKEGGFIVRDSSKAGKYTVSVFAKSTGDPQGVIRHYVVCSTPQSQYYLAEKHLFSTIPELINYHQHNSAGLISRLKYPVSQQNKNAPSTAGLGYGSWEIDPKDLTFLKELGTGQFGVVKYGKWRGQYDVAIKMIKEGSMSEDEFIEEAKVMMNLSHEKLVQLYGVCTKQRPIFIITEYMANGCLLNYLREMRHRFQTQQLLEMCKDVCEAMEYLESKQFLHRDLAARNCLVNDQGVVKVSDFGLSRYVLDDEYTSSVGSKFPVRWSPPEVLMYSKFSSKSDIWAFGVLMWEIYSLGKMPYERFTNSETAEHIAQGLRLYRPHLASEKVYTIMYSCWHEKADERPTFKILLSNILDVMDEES
Method: Then, Kinase assays were performed using the HotSpot assay platform.Briefly, specific kinase/substrate pairs along with required cofactors were prepared in reaction buffer; 20 mM Hepes pH 7.5, 10 mM MgCl2, 1 mM EGTA, 0.02% Brij35, 0.02 mg/ml BSA, 0.1 mM Na3VO4, 2 mM DTT, 1% DMSO. Compounds were delivered into the reaction, followed about 20 minutes later by addition of a mixture of ATP (Sigma, St. Louis Mo.) and 33P ATP (Perkin Elmer, Waltham Mass.) to a final concentration of 10 μM.Reactions were carried out at room temperature for 120 min, followed by spotting of the reactions onto P81 ion exchange filter paper (Whatman Inc., Piscataway, N.J.). Unbound phosphate was removed by extensive washing of filters in 0.75% phosphoric acid. […] IC50 values and curve fits were obtained using Prism (GraphPad Software).

In the case of `C=CC(=O)Nc1ccccc1Nc1nc(Nc2ccc(OCCCOC3(CC)OCC(C)(C)CO3)cc2)ncc1F` [US11440904, Compound 9], the IC50 is reported as > 100 nM.

— BindingDB's records for patent US11440904 (2022)
